{"source": "patent US20160129021A1", "about": "“STERILIZATION METHOD” (UNIVERSITY OF PITTSBURGH - OF THE COMMONWEALTH SYSTEM OF …, priority 2013, published 2016)", "key": {"[1]": {"test_system": "FGF and GDNF-mediated phosphorylation of ERK", "experiment": "FGF/GDNF-stimulated ERK phosphorylation in GS cell cultures (western blot)", "type": "cell-based, mouse", "settings": "FGF 20 ng/ml or GDNF 20 ng/ml, pretreatment with 50 μM", "description": "(§1) FIG. 7A-F. Inhibition of SHP2 blocks GDNF and FGF signaling causes SSCs to detach from their niche decreases the number of SSCs in culture and disrupts spermatogenesis in vivo. […] Western blot analysis of p-ERK and ERK levels after the treatments is shown. […] The percentage of cells detached from feeder cells was determined (n=3, *=p<0.05). C) The epididymis of control and GCSHP2KO mice were stained with periodic acid Schiffs-hematoxylin. Immature germ cells in GCSHP2KO epididymis are identified with arrows. D) GS cells treated with vehicle or NSC (50 μM) as in B were isolated from feeder cells, dispersed and counted. E) Clumps of GS cells (white arrows) and feeder cells (yellow arrows) treated as in D were assayed for live (green) and dead (red) cells.\nIsolation of THY1+ germ cells from 6-day-old DBA/2 mice was performed as described previously to produce GS cell cultures (Oatley and Brinster, 2006) (more details in Supplemental Experimental Procedures). […] SSCs were detached from feeders and FGF or GDNF were added for 10 min. Detached SSCs were then pelleted (600×g, 7 min) and the pellets were lysed in Laemmli sample buffer.\nWCE boiled in Laemmli sample buffer were fractionated by 10% SDS-PAGE and transferred to Immobilon-P, PVDF membranes 90 (Millipore Corp., Bedford, Mass.). […]"}, "GS cells [2]": {"test_system": "GS cells", "experiment": "Detachment of GS cells from feeder cells", "type": "cell-based, mouse", "settings": "50 μM, 5 days, vs vehicle", "description": "as §1\n(§2) Preparation of GS cell cultures from 6-day-old DBA/2 mice was performed as described previously (Oatley and Brinster, 2006). Briefly, a testicular cell suspension was isolated by enzymatic digestion with DNase and trypsin and filtered through a 40 uM mesh to remove cell clumps. Germ cells were then enriched from these suspensions through a 30% percoll gradient. The germ cell suspensions were subjected to magnetic activated cell sorting (MACS) to select Thy1+ cells to enrich for SSCs. […]"}, "GS cells [3]": {"test_system": "GS cells", "experiment": "GS cell number after isolation from feeder cells, dispersed and counted", "type": "cell-based, mouse", "settings": "50 μM, 5 day treatment, vs vehicle", "description": "as §1\nAll immunostained cells and tubules from an entire testis section were counted and the number of stained cells per tubule was determined. GS cell viability was determined using the LIVE/DEAD Viability Assay kit for mammalian cells (Life Technologies)\nas §2, with “gradient.” for “gradient. The germ cell suspensions were subjected to magnetic activated cell sorting (MACS) to select Thy1+ cells to enrich for SSCs.”"}, "[4]": {"test_system": "spermatogenesis in adult mice", "experiment": "ip injection into adult mice, testis sections stained with PAS-H", "type": "in vivo, mouse", "settings": "15 days later", "description": "as §1, with “cells. […] Furthermore, the populations of spermatocytes and spermatids were reduced.” for “cells.”"}, "[5]": {"test_system": "spermatogenesis in testes of adult mice", "experiment": "One injection into the testes of adult mice, sperm production", "type": "in vivo, mouse"}, "spleen tissue": {"test_system": "spleen tissue", "experiment": "Spleen tissue after injection into testes", "type": "in vivo, mouse", "settings": "same animal as FIG. 11 (10 mg/kg into testes), 15 days after injection"}, "[6]": {"settings": "5 mg/kg ip daily for 3 or 7 days"}}, "data": [{"smiles": "O=S(=O)(O)c1ccc2cc(/N=N/c3cc(S(=O)(=O)O)c4cccnc4c3O)ccc2c1", "note": "[NSC-87877, 8-Hydroxy-7-[(6-sulfo-2-naphthyl)azo]-5-quinolinesulfonic acid]", "values": [{"measurement": "FGF and GDNF-mediated phosphorylation (activation) of ERK", "setting": "[1]", "result": "decreased FGF and GDNF mediated activation of ERK"}, {"measurement": "FGF and GDNF-mediated phosphorylation (activation) of ERK", "setting": "[1]; listed as NSC-878777", "result": "inhibited the FGF and GDNF-mediated phosphorylation of ERK"}, {"measurement": "increase in the number of GS cells detached from the feeder cells", "setting": "GS cells [2]", "result": 3, "unit": "fold"}, {"measurement": "reduction of the number of GS cells", "setting": "GS cells [3]", "result": 22, "unit": "%"}, {"measurement": "further disruption of spermatogenesis (elongated spermatids)", "setting": "[4]; [6]", "result": "mis-localization and mis-orientation of elongated spermatids"}, {"measurement": "populations of spermatocytes and spermatids", "setting": "[4]; [6]", "result": "reduced"}, {"measurement": "spermatogonia in tubules at the periphery of the testes", "setting": "[4]; [6]", "result": "absence of spermatogonia"}, {"measurement": "germ cells in some tubule cross sections", "setting": "[4]; 5 mg/kg ip daily for 7 days", "result": "nearly all germ cells were absent"}, {"measurement": "sperm production, long term", "setting": "[5]; one injection of 10 mg/kg into the testes, adult mice, 70 days", "result": "loss of sperm production in some regions of the testes"}, {"measurement": "spermatogenesis (sperm production)", "setting": "[5]; one injection of 40 mg/kg into the testes, adult mice, 15 days later", "result": "sufficient to disrupt spermatogenesis"}, {"measurement": "fertility", "setting": "[5]; single dose of 10 mg/kg or 40 mg/kg, mouse", "result": "effective in decreasing fertility"}, {"measurement": "damage of spleen tissue", "setting": "spleen tissue", "result": "not damaged"}]}]}
